Data taken from publication PMC12260505, “First-in-Human Phase I/IIa Study of the First-in-Class CDK2/4/6 Inhibitor PF-06873600 Alone or with Endocrine Therapy in Patients with Breast Cancer” (Clinical Cancer Research, 2025).

Experiment: Adverse events graded by NCI CTCAE version 4.03, phase I/IIa study
Assay type: in vivo
Description: Part 1 included adult patients with HR^+/HER2^− advanced breast cancer or mBC (third- or fourth-line setting), locally recurrent/advanced or metastatic TNBC, or advanced platinum-resistant epithelial ovarian cancer/fallopian tube cancer/primary peritoneal cancer who received oral PF-06873600 at doses of 1 to 50 mg twice daily or oral PF-06873600 plus ET (letrozole or fulvestrant). Primary endpoints for part 1 dose escalation determined safety and tolerability to define dose-limiting toxicities (DLT), estimate the maximum tolerated dose, and select the recommended dose for expansion (RDE). Safety endpoints included adverse events (AE) characterized by type, frequency, severity [as graded by NCI Common Terminology Criteria for Adverse Events (CTCAE) version 4.03], timing, seriousness, and relationship to study therapy. Laboratory abnormalities were characterized by type, frequency, severity (as graded by NCI CTCAE version 4.03), timing, vital sign abnormalities, and heart rate–corrected QT interval (e.g., QTcF). Secondary endpoints included PK, preliminary antitumor activity as assessed using RECIST version 1.1, time-to-event endpoints including objective response rate (ORR), duration of response (DoR), progression-free survival (PFS), time to progression (TTP), and modulation of tumor CDK biomarkers [phosphorylated Rb (pRb), Ki67]. Exploratory endpoints included molecular profiling of tumor and ctDNA and the relationship to clinical outcome.
AEs were graded by NCI CTCAE version 4.03.

[1] = Part 2C 25 mg BID IR + Fulvestrant, N = 28
[2] = parts 1 and 2, N = 151, all cycles

In the case of C[C@@]1(O)CCC[C@H]1n1c(=O)c(C(F)F)cc2cnc(NC3CCN(S(C)(=O)=O)CC3)nc21 [PF-06873600], the “Treatment-related TEAE, Headache, Grade 3/4” value [1] is reported as 0 n (%), the “Treatment-related TEAE, Headache, Grade 5” value [1] is reported as 0 n (%) and the “Treatment-related TEAE, Headache, Total” value [1] is reported as 9 (32.1) n (%). For the same compound, the “Treatment-related TEAE, Leukopenia, Grade 1” value [1] was 3 (10.7) n (%), the “Treatment-related TEAE, Leukopenia, Grade 2” value [1] was 3 (10.7) n (%) and the “Treatment-related TEAE, Leukopenia, Grade 3/4” value [1] was 0 n (%). The “Treatment-related TEAE, Leukopenia, Grade 5” value [1] was 0 n (%), the “Treatment-related TEAE, Leukopenia, Total” value [1] was 6 (21.4) n (%) and the “Treatment-related TEAE, Nausea, Grade 1” value [1] was 12 (42.9 ) n (%). For the same compound, the “Treatment-related TEAE, Nausea, Grade 2” value [1] was 7 (25.0) n (%), the “Treatment-related TEAE, Nausea, Grade 3/4” value [1] was 0 n (%) and the “Treatment-related TEAE, Nausea, Grade 5” value [1] was 0 n (%). The “Treatment-related TEAE, Nausea, Total” value [1] was 19 (67.9 ) n (%), the “Treatment-related TEAE, Neutropenia, Grade 1” value [1] was 1 (3.6) n (%) and the “Treatment-related TEAE, Neutropenia, Grade 2” value [1] was 2 (7.1) n (%). For the same compound, the “Treatment-related TEAE, Neutropenia, Grade 3/4” value [1] was 6 (21.4) n (%), the “Treatment-related TEAE, Neutropenia, Grade 5” value [1] was 0 n (%) and the “Treatment-related TEAE, Neutropenia, Total” value [1] was 9 (32.1) n (%). The “Treatment-related TEAE, Thrombocytopenia, Grade 1” value [1] was 1 (3.6) n (%), the “Treatment-related TEAE, Thrombocytopenia, Grade 2” value [1] was 0 n (%) and the “Treatment-related TEAE, Thrombocytopenia, Grade 3/4” value [1] was 1 (3.6) n (%). The “Treatment-related TEAE, Thrombocytopenia, Grade 5” value [1] was 0 n (%), the “Treatment-related TEAE, Thrombocytopenia, Total” value [1] was 2 (7.1) n (%) and the “Treatment-related TEAE, Vomiting, Grade 1” value [1] was 8 (28.6) n (%). The “Treatment-related TEAE, Vomiting, Grade 2” value [1] was 4 (14.3) n (%), the “Treatment-related TEAE, Vomiting, Grade 3/4” value [1] was 0 n (%) and the “Treatment-related TEAE, Vomiting, Grade 5” value [1] was 0 n (%). For the same compound, the “Treatment-related TEAE, Vomiting, Total” value [1] was 12 (42.9 ) n (%), the “All-causality SAE, abdominal pain” value (parts 1 and 2, 151 patients) was 2.0% and the “All-causality SAE, colitis” value (parts 1 and 2, 151 patients) was 2.0%. For the same compound, the “All-causality SAE, febrile neutropenia” value (parts 1 and 2, 151 patients) was 3.3%, the “All-causality SAE, hypotension” value (parts 1 and 2, 151 patients) was 2.0% and the “All-causality TEAE, alopecia” value (parts 1 and 2, 151 patients) was 28.5%. The “All-causality TEAE, anemia” value (parts 1 and 2, 151 patients) was 44.4%, the “All-causality TEAE, constipation” value (parts 1 and 2, 151 patients) was 25.2% and the “All-causality TEAE, diarrhea” value (parts 1 and 2, 151 patients) was 22.5%. The “All-causality TEAE, fatigue” value (parts 1 and 2, 151 patients) was 43.7%, the “All-causality TEAE, headache” value (parts 1 and 2, 151 patients) was 29.1% and the “All-causality TEAE, leukopenia” value (parts 1 and 2, 151 patients) was 25.8%. The “All-causality TEAE, nausea” value (parts 1 and 2, 151 patients) was 62.9%, the “All-causality TEAE, neutropenia” value (parts 1 and 2, 151 patients) was 37.7% and the “All-causality TEAE, vomiting” value (parts 1 and 2, 151 patients) was 35.8%. The “All-causality TEAEs, any, patients” value (parts 1 and 2, 151 patients) was 97.4%, the “All-causality serious adverse events (SAE), patients” value (parts 1 and 2, 151 patients) was 22.5% and the “Grade 3 all-causality TEAEs, patients” value (parts 1 and 2, 151 patients) was 34.4%. For the same compound, the “Grade 3 and grade 4 all-causality TEAEs, patients” value (parts 1 and 2, 151 patients) was 45.7%, the “Grade 3 treatment-related TEAEs, patients” value (parts 1 and 2, 151 patients) was 25.8% and the “Grade 4 all-causality TEAEs, patients” value (parts 1 and 2, 151 patients) was 11.3%. For the same compound, the “Grade 4 treatment-related TEAEs, patients” value (parts 1 and 2, 151 patients) was 9.9%, the “TEAE leading to dose interruptions, anemia” value (parts 1 and 2, 151 patients) was 11.3% and the “TEAE leading to dose interruptions, nausea” value (parts 1 and 2, 151 patients) was 11.3%. The “TEAE leading to dose interruptions, neutropenia” value (parts 1 and 2, 151 patients) was 17.9%, the “TEAE leading to dose reductions, fatigue” value (parts 1 and 2, 151 patients) was 5.3% and the “TEAE leading to dose reductions, nausea” value (parts 1 and 2, 151 patients) was 4.6%. For the same compound, the “TEAE leading to dose reductions, neutropenia” value (parts 1 and 2, 151 patients) was 6.0%, the “TEAEs leading to discontinuation, patients” value (parts 1 and 2, 151 patients) was 7.3% and the “TEAEs leading to dose interruptions, patients” value (parts 1 and 2, 151 patients) was 51.7%. For the same compound, the “TEAEs leading to dose reductions, patients” value (parts 1 and 2, 151 patients) was 21.2%, the “Treatment-related SAE, colitis” value (parts 1 and 2, 151 patients) was 1.3% and the “Treatment-related SAE, febrile neutropenia” value (parts 1 and 2, 151 patients) was 3.3%. The “Treatment-related SAE, neutropenia” value (parts 1 and 2, 151 patients) was 1.3%, the “Treatment-related SAE, stomatitis” value (parts 1 and 2, 151 patients) was 1.3% and the “Treatment-related SAEs, patients” value (parts 1 and 2, 151 patients) was 8.6%. For the same compound, the “Treatment-related TEAE, Alopecia, Grade 1” value [2] was 21 (13.9) n (%), the “Treatment-related TEAE, Alopecia, Grade 2” value [2] was 21 (13.9) n (%) and the “Treatment-related TEAE, Alopecia, Grade 3/4” value [2] was 0 n (%). For the same compound, the “Treatment-related TEAE, Alopecia, Grade 5” value [2] was 0 n (%), the “Treatment-related TEAE, Alopecia, Total” value [2] was 42 (27.8) n (%) and the “Treatment-related TEAE, Anemia, Grade 1” value [2] was 13 (8.6) n (%). For the same compound, the “Treatment-related TEAE, Anemia, Grade 2” value [2] was 28 (18.5) n (%), the “Treatment-related TEAE, Anemia, Grade 3/4” value [2] was 21 (13.9) n (%) and the “Treatment-related TEAE, Anemia, Grade 5” value [2] was 0 n (%). For the same compound, the “Treatment-related TEAE, Anemia, Total” value [2] was 62 (41.1) n (%), the “Treatment-related TEAE, Any AE, Grade 1” value [2] was 27 (17.9) n (%) and the “Treatment-related TEAE, Any AE, Grade 2” value [2] was 55 (36.4) n (%). For the same compound, the “Treatment-related TEAE, Any AE, Grade 3/4” value [2] was 54 (35.8) n (%), the “Treatment-related TEAE, Any AE, Grade 5” value [2] was 2 (1.3) n (%) and the “Treatment-related TEAE, Any AE, Total” value [2] was 138 (91.4) n (%). For the same compound, the “Treatment-related TEAE, Constipation, Grade 1” value [2] was 13 (8.6) n (%), the “Treatment-related TEAE, Constipation, Grade 2” value [2] was 10 (6.6) n (%) and the “Treatment-related TEAE, Constipation, Grade 3/4” value [2] was 0 n (%). The “Treatment-related TEAE, Constipation, Grade 5” value [2] was 0 n (%), the “Treatment-related TEAE, Constipation, Total” value [2] was 23 (15.2) n (%) and the “Treatment-related TEAE, Diarrhea, Grade 1” value [2] was 21 (13.9) n (%). For the same compound, the “Treatment-related TEAE, Diarrhea, Grade 2” value [2] was 4 (2.6) n (%), the “Treatment-related TEAE, Diarrhea, Grade 3/4” value [2] was 2 (1.3) n (%) and the “Treatment-related TEAE, Diarrhea, Grade 5” value [2] was 0 n (%). The “Treatment-related TEAE, Diarrhea, Total” value [2] was 27 (17.9) n (%), the “Treatment-related TEAE, Fatigue, Grade 1” value [2] was 23 (15.2) n (%) and the “Treatment-related TEAE, Fatigue, Grade 2” value [2] was 25 (16.6) n (%). For the same compound, the “Treatment-related TEAE, Fatigue, Grade 3/4” value [2] was 12 (7.9) n (%), the “Treatment-related TEAE, Fatigue, Grade 5” value [2] was 0 n (%) and the “Treatment-related TEAE, Fatigue, Total” value [2] was 60 (39.7) n (%). The “Treatment-related TEAE, Headache, Grade 1” value [2] was 28 (18.5) n (%), the “Treatment-related TEAE, Headache, Grade 2” value [2] was 4 (2.6) n (%) and the “Treatment-related TEAE, Headache, Grade 3/4” value [2] was 0 n (%). For the same compound, the “Treatment-related TEAE, Headache, Grade 5” value [2] was 0 n (%), the “Treatment-related TEAE, Headache, Total” value [2] was 32 (21.2) n (%) and the “Treatment-related TEAE, Leukopenia, Grade 1” value [2] was 5 (3.3) n (%). For the same compound, the “Treatment-related TEAE, Leukopenia, Grade 2” value [2] was 23 (15.2) n (%), the “Treatment-related TEAE, Leukopenia, Grade 3/4” value [2] was 9 (6.0) n (%) and the “Treatment-related TEAE, Leukopenia, Grade 5” value [2] was 0 n (%). For the same compound, the “Treatment-related TEAE, Leukopenia, Total” value [2] was 37 (24.5) n (%), the “Treatment-related TEAE, Nausea, Grade 1” value [2] was 65 (43.0) n (%) and the “Treatment-related TEAE, Nausea, Grade 2” value [2] was 26 (17.2) n (%). For the same compound, the “Treatment-related TEAE, Nausea, Grade 3/4” value [2] was 1 (0.7) n (%), the “Treatment-related TEAE, Nausea, Grade 5” value [2] was 0 n (%) and the “Treatment-related TEAE, Nausea, Total” value [2] was 92 (60.9) n (%). For the same compound, the “Treatment-related TEAE, Neutropenia, Grade 1” value [2] was 6 (4.0) n (%), the “Treatment-related TEAE, Neutropenia, Grade 2” value [2] was 19 (12.6) n (%) and the “Treatment-related TEAE, Neutropenia, Grade 3/4” value [2] was 31 (20.5) n (%). For the same compound, the “Treatment-related TEAE, Neutropenia, Grade 5” value [2] was 0 n (%), the “Treatment-related TEAE, Neutropenia, Total” value [2] was 56 (37.1) n (%) and the “Treatment-related TEAE, Thrombocytopenia, Grade 1” value [2] was 16 (10.6) n (%). For the same compound, the “Treatment-related TEAE, Thrombocytopenia, Grade 2” value [2] was 4 (2.6) n (%), the “Treatment-related TEAE, Thrombocytopenia, Grade 3/4” value [2] was 9 (6.0) n (%) and the “Treatment-related TEAE, Thrombocytopenia, Grade 5” value [2] was 0 n (%). The “Treatment-related TEAE, Thrombocytopenia, Total” value [2] was 29 (19.2) n (%), the “Treatment-related TEAE, Vomiting, Grade 1” value [2] was 38 (25.2) n (%) and the “Treatment-related TEAE, Vomiting, Grade 2” value [2] was 12 (7.9) n (%). The “Treatment-related TEAE, Vomiting, Grade 3/4” value [2] was 1 (0.7) n (%), the “Treatment-related TEAE, Vomiting, Grade 5” value [2] was 0 n (%) and the “Treatment-related TEAE, Vomiting, Total” value [2] was 51 (33.8) n (%).
